Measured values: ChEMBL document CHEMBL3400044, “Minimization of drug-drug interaction risk and candidate selection in a natural product-based class of gamma-secretase modulators” (Bioorg Med Chem Lett, 2015)

Test: physchem

Q: For `CCO[C@@H]([C@H]1C[C@@H](C)[C@H]2[C@H](O1)[C@H](O)[C@@]1(C)[C@@H]3CC[C@H]4C(C)(C)[C@@H](O[C@H]5CN(CC(=O)N6CCC6)CCO5)CC[C@@]45C[C@@]35CC[C@]21C)C(C)(C)O`, which pKa is on record?
A: The pKa was 5.2.

Q: Which pKa does the source give for `CCO[C@@H]([C@H]1C[C@@H](C)[C@H]2[C@H](O1)[C@H](O)[C@@]1(C)[C@@H]3CC[C@H]4C(C)(C)[C@@H](O[C@H]5CN(C6(C)COC6)CCO5)CC[C@@]45C[C@@]35CC[C@]21C)C(C)(C)O` here?
A: Its pKa is 5.2.

Q: With `CCO[C@@H]([C@H]1C[C@@H](C)[C@H]2[C@H](O1)[C@H](O)[C@@]1(C)[C@@H]3CC[C@H]4C(C)(C)[C@@H](O[C@H]5CN(C6CNC6)CCO5)CC[C@@]45C[C@@]35CC[C@]21C)C(C)(C)O` as the molecule, how does the pKa read?
A: The pKa was 10.7.

Q: Which pKa does the source give for `CCO[C@@H]([C@H]1C[C@@H](C)[C@H]2[C@H](O1)[C@H](O)[C@@]1(C)[C@@H]3CC[C@H]4C(C)(C)[C@@H](O[C@H]5CN(C)CCO5)CC[C@@]45C[C@@]35CC[C@]21C)C(C)(C)O` here?
A: The pKa was 7.2.

Q: Which pKa does the source give for `CCO[C@@H]([C@H]1C[C@@H](C)[C@H]2[C@H](O1)[C@H](O)[C@@]1(C)[C@@H]3CC[C@H]4C(C)(C)[C@@H](O[C@H]5CN(CC)CCO5)CC[C@@]45C[C@@]35CC[C@]21C)C(C)(C)O` here?
A: Its pKa is 7.3.

Q: Which pKa does the source give for `CCO[C@@H]([C@H]1C[C@@H](C)[C@H]2[C@H](O1)[C@H](O)[C@@]1(C)[C@@H]3CC[C@H]4C(C)(C)[C@@H](O[C@H]5CN(CCN6CCC6)CCO5)CC[C@@]45C[C@@]35CC[C@]21C)C(C)(C)O` here?
A: The pKa was 9.4.

Q: Which pKa does the source give for `CCO[C@@H]([C@H]1C[C@@H](C)[C@H]2[C@H](O1)[C@H](O)[C@@]1(C)[C@@H]3CC[C@H]4C(C)(C)[C@@H](O[C@H]5CN(C6COC6)CCO5)CC[C@@]45C[C@@]35CC[C@]21C)C(C)(C)O` here?
A: The pKa was 5.1.

Q: For `CCO[C@@H]([C@H]1C[C@@H](C)[C@H]2[C@H](O1)[C@H](O)[C@@]1(C)[C@@H]3CC[C@H]4C(C)(C)[C@@H](O[C@H]5CNCCO5)CC[C@@]45C[C@@]35CC[C@]21C)C(C)(C)O`, which pKa is on record?
A: Its pKa is 7.8.
